According to patent US11072636B2, “Peptide for inhibiting angiogenesis and use thereof” (CAREGEN CO., LTD., priority 2017, dated 2021):

Legend:
[1] = tested on: human umbilical vein endothelial cells (HUVEC); assay: Inhibition of proliferation of vascular endothelial cells (MTT analysis); assay type: cell-based; conditions: VEGF 20 ng/ml, 1% serum, 3 days, MTT absorbance 560 nm, FIGS. 1 and 2
Method: In order to confirm an effect of inhibiting the proliferation of vascular endothelial cells, the peptides prepared in Preparation Example 1 were treated to vascular endothelial cells, respectively, and then MTT analysis was performed.
Specifically, human umbilical vein endothelial cells (HUVEC) were inoculated in a 96-well plate at a density of 4×10^3 cells/well and then incubated overnight. Thereafter, after the medium was changed to a medium added with 1% serum, a VEGF (20 ng/ml) and the peptide of the present invention were treated for each concentration, respectively, and incubated for 3 days. However, 2 μm of sunitinib was used as a positive control group.
In addition, in order to confirm the effect of inhibiting the proliferation, 4 mg/ml of a thiozolyl blue tetrazolium bromide (MTT) solution was added to each well, formazan generated after reaction for 4 hours was dissolved by DMSO treatment, and then the absorbance was measured at a wavelength of 560 nm using a microplate reader. However, the measured absorbance values were shown by calculating relative rates based on an untreated control group.

[2] = tested on: HUVEC cells; assay: Inhibition of differentiation of vascular endothelial cells (tube formation assay); assay type: cell-based, human; conditions: VEGF 20 ng/ml, serum-free, 1 day, FIGS. 3 and 4
Method: In order to confirm the effect of inhibiting the differentiation of vascular endothelial cells, the two peptides prepared in Preparation Example 1 were treated to the vascular endothelial cells, respectively, and then a tube formation assay was performed.
Specifically, HUVEC cells were inoculated in a 96-well plate at a density of 1.5×10^3 cells/well and incubated overnight, and then the medium was replaced with serum-free media, and then a VEGF (20 ng/ml) and the peptide of the present invention were treated by concentration and incubated for 1 day. However, 2 μm of sunitinib was used as a positive control group. After the incubation was completed, the measurement of tube formation was visually observed using an optical microscope, and the number of nodules was measured together.

[3] = tested on: VEGF receptor (VEGFR2); assay: Inhibition of cell signaling pathway induced by VEGF: phosphorylation of VEGFR2; assay type: cell-based; conditions: vascular endothelial cells; FIGS. 5 and 6
Method: (§1) Further, in order to confirm the effect of inhibiting a cell signaling pathway induced by the VEGFs by the peptides of the present invention, in a specific exemplary embodiment of the present invention, a peptide having an amino acid sequence of SEQ ID NO: 1 or SEQ ID NO: 2 was treated to vascular endothelial cells and then changes in phosphorylation of a VEGF receptor (VEGFR2), ERK, AKT and p38 induced by the VEGF were confirmed.

[4] = tested on: ERK; assay: Inhibition of cell signaling pathway induced by VEGF: phosphorylation of ERK; assay type: cell-based; conditions: vascular endothelial cells; FIGS. 5 and 6
Method: as §1

[5] = tested on: AKT; assay: Inhibition of cell signaling pathway induced by VEGF: phosphorylation of AKT; assay type: cell-based; conditions: vascular endothelial cells; FIGS. 5 and 6
Method: as §1

[6] = tested on: p38; assay: Inhibition of cell signaling pathway induced by VEGF: phosphorylation of p38; assay type: cell-based; conditions: vascular endothelial cells; FIGS. 5 and 6
Method: as §1

[7] = tested on: eNOS; assay: Expression level of vascular endothelial cell migration marker eNOS; assay type: cell-based; conditions: vascular endothelial cells; FIGS. 7 and 8
Excerpt: In addition, in order to confirm an effect of inhibiting the migration the vascular endothelial cells by the peptides of the present invention, in a specific exemplary embodiment of the present invention, a change in expression level of a vascular endothelial cell migration marker ‘eNOS’ was confirmed depending on treatment of the peptide having the amino acid sequence of SEQ ID NO: 1 or SEQ ID NO: 2 to the vascular endothelial cells.

[8] = tested on: BAX protein; assay: Expression level of pro-apoptotic BAX protein; assay type: cell-based; conditions: vascular endothelial cells, expression reduced by the VEGF; FIGS. 9 and 10
[9] = target: VEGFR2 (Homo sapiens, UniProt P35968); assay: Competitive binding to the VEGF receptor; conditions: FIGS. 11 to 14
Sequence of VEGFR2 (P35968 20-1356, species assumed): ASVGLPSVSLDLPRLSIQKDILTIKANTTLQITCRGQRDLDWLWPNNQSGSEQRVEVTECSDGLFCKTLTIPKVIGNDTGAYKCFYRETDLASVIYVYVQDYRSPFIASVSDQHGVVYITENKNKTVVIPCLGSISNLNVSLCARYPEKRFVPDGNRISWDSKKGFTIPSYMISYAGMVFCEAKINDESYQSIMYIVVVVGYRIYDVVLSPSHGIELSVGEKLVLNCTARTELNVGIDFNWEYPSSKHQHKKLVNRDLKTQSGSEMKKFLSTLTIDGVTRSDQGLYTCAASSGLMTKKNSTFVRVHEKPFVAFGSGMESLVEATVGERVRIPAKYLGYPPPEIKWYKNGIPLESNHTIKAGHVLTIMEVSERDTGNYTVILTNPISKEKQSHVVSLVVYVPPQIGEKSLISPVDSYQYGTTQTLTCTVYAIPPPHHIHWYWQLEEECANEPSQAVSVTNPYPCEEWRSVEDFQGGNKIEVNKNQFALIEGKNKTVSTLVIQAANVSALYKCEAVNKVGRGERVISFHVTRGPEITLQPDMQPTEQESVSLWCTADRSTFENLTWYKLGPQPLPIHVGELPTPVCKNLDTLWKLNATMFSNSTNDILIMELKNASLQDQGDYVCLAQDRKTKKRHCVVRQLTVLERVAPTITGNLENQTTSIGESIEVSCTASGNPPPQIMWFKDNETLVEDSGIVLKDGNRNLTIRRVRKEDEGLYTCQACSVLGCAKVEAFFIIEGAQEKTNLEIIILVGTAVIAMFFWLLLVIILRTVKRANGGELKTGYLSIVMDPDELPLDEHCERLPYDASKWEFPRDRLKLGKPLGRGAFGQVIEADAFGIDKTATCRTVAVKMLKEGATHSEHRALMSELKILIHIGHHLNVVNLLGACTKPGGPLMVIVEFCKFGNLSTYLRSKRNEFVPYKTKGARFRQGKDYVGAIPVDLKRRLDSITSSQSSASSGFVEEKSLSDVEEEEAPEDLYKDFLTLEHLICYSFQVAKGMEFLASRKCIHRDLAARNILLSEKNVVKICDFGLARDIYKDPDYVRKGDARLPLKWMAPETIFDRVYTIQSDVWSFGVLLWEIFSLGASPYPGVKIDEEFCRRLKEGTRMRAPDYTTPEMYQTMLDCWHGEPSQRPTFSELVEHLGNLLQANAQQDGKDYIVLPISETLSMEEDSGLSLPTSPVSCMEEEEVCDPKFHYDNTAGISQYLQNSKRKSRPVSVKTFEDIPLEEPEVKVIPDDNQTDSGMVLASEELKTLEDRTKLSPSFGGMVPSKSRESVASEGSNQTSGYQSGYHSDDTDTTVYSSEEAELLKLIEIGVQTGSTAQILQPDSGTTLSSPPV

For NKNFGYDLYR (Peptide 1) [SEQ ID NO: 1], the “proliferation of vascular endothelial cells increased by the VEGF” value [1] was “reduced”, the “differentiation (tube formation) of vascular endothelial cells” value [2] was “reduced” and the “phosphorylation of VEGFR2 induced by the VEGF” value [3] was “significantly inhibited”. For the same sequence, the “phosphorylation of ERK induced by the VEGF” value [4] was “significantly inhibited”, the “phosphorylation of AKT induced by the VEGF” value [5] was “significantly inhibited” and the “phosphorylation of p38 induced by the VEGF” value [6] was “significantly inhibited”. For the same sequence, the “eNOS expression increased by VEGF treatment” value [7] was “decrease concentration-dependently”, the “expression of the BAX protein” value [8] was “increased concentration-dependently” and the “binding to the VEGF receptor in competition with the VEGF” value [9] was “bind to a VEGFR2 competitively with the VEGF”.
IHGTYKELL (Peptide 2) [SEQ ID NO: 2] was tested, and the “proliferation of vascular endothelial cells increased by the VEGF” value [1] was “reduced”, the “differentiation (tube formation) of vascular endothelial cells” value [2] was “reduced” and the “phosphorylation of VEGFR2 induced by the VEGF” value [3] was “significantly inhibited”. The “phosphorylation of ERK induced by the VEGF” value [4] was “significantly inhibited”, the “phosphorylation of AKT induced by the VEGF” value [5] was “significantly inhibited” and the “phosphorylation of p38 induced by the VEGF” value [6] was “significantly inhibited”. The “eNOS expression increased by VEGF treatment” value [7] was “decrease concentration-dependently”, the “expression of the BAX protein” value [8] was “increased concentration-dependently” and the “binding to the VEGF receptor in competition with the VEGF” value [9] was “bind to a VEGFR2 competitively with the VEGF”.
